System: K98450-129-R-PDC multicell spheroids, viability
Assay: Anticancer human tumor K98450-129-R-PDC patient-derived colon adenocarcinoma cell line growth inhibition [PI3K]
Conditions: for IC50: curve of first compound; for viability, T/C: stronger effect = lower value; active = viability on the fitted dose curve at most 10% of control; inactive = the rest
From the text: Combinatorial screen of targeted agents with the PI3K inhibitors inavolisib, alpelisib, duvelisib, and copanlisib in multi-cell type tumor spheroids
A high-throughput screen of multi-cell type tumor spheroids was designed to identify active combinations of targeted small molecules and PI3K pathway inhibitors. Complex spheroids include a stromal component modeled by human endothelial cells (HUVEC) and fibroblasts modeled by human mesenchymal stem cells (MSCs). The concentration ranges selected for each drug and investigational agent were based upon clinically achievable concentrations if the clinical Cmax of the agent was known.
Compounds. The drugs and investigational agents: inavolisib (NSC800729), alpelisib (NSC765974), duvelisib (NSC772469), copanlisib (NSC816437), ipatasertib (NSC767898), afuresertib (NSC778305), talazoparib (NSC767125), sapanisertib (NSC764658), selumetinib (NSC741078), tovorafenib (DAY101, NSC766906), vemurafenib (NSC761431), ravoxertinib (NSC781343), sotorasib (NSC818433), MRTX1133 (NSC 836407), abemaciclib (NSC 768073), palbociclib (NSC758247), venetoclax (NSC 766270), SY5609 (NSC837396), enzalutamide (NSC755605), and darolutamide (NSC825331), were obtained from the National Cancer Institute (NCI) Developmental Therapeutics Program Chemical Repository. The FDA-approved anticancer drug set is available from the NCI Developmental Therapeutics Program. […] The stock solutions were prepared in dimethyl sulfoxide (DMSO, Sigma-Aldrich, St. Louis, MO, cat. D2650) at 800-fold the tested concentration and stored at -70 degrees C prior to their use. All drugs and investigational agents were tested over a range starting from a high concentration at or near the clinical Cmax and decreasing in half-log increments. If the clinical Cmax for an agent had not been determined, the highest concentration tested was 10 microM.
Cell Culture. All cells were maintained in an incubator at 37 degrees C and 5% CO2 with 95% humidity. The PDC lines were cultured according to standard operating procedures established by the NCI PDMR (https://pdmr.cancer.gov/sops/default.htm). All PDCs were thawed and cultured in Matrigel-coated flasks prepared with a working solution of 1X Ham's F-12 nutrient mix, without supplementation (Invitrogen, Waltham, MA, cat. 11765054), 100 U/mL penicillin-streptomycin (Invitrogen, cat. 15140122), and 2.5% Matrigel (Corning Inc., Corning, NY, cat. 354248) for the first three passages. The 354836-022-R-J1-PDC, 475296-252-R-J1-PDC, and 997726-040-R-J2-PDC lines were cultured in 6A media, which includes advanced DMEM/F-12 (Thermo Fisher Scientific, cat. 12634028), 10 mM HEPES (Thermo Fisher Scientific, cat. 15630080), 1X GlutaMAX supplement (Thermo Fisher Scientific, cat. 35050061), 0.1 mg/mL primocin (InvivoGen, San Diego, CA, cat. ant-pm-2), 10% defined fetal bovine serum, heat inactivated (HyClone Laboratories Inc., Logan, UT, cat. SH30070.03HI), 50% L-WRN conditioned media (ATCC, cat. CRL-3276), 1.25 mM N-Acetyl-L-cysteine (Sigma-Aldrich, cat. A9165), 10 mM nicotinamide (Sigma-Aldrich, cat. N0636), 1X B-27 supplement (Thermo Fisher Scientific, cat. 17504044), 1X N-2 supplement (Thermo Fisher Scientific, cat. 17502048), and 10 microM Y-27632 dihydrochloride (Tocris Bioscience, Bristol, United Kingdom, cat. 1254). The 624824-186-R-J2-PDC line was cultured in 6C/Colon 1B media, which includes all 6A media components plus 50 ng/mL human EGF recombinant protein (Thermo Fisher Scientific, cat. PHG0311). […]

[1] = second compound 0.0316 µM, first compound 0.0316 µM
[2] = second compound 0.0316 µM, first compound 0.1 µM
[3] = second compound 0.0316 µM, first compound 0.316 µM
[4] = second compound 0.0316 µM, first compound 1 µM
[5] = second compound 0.0316 µM, first compound 3.16 µM
[6] = second compound 0.0316 µM, first compound 10 µM
[7] = second compound 0.1 µM, first compound 0.0316 µM
[8] = second compound 0.1 µM, first compound 0.1 µM
[9] = second compound 0.1 µM, first compound 0.316 µM
[10] = second compound 0.1 µM, first compound 1 µM
[11] = second compound 0.1 µM, first compound 3.16 µM
[12] = second compound 0.1 µM, first compound 10 µM
[13] = second compound 0.316 µM, first compound 0.0316 µM
[14] = second compound 0.316 µM, first compound 0.1 µM
[15] = second compound 0.316 µM, first compound 0.316 µM
[16] = second compound 0.316 µM, first compound 1 µM
[17] = second compound 0.316 µM, first compound 3.16 µM
[18] = second compound 0.316 µM, first compound 10 µM
[19] = second compound 1 µM, first compound 0.0316 µM
[20] = second compound 1 µM, first compound 0.1 µM
[21] = second compound 1 µM, first compound 0.316 µM
[22] = second compound 1 µM, first compound 1 µM
[23] = second compound 1 µM, first compound 3.16 µM
[24] = second compound 1 µM, first compound 10 µM
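Note: spheroids exposed to agents for seven days before read-out.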

C#Cc1c(F)ccc2cc(O)cc(-c3ncc4c(N5CC6CCC(C5)N6)nc(OCC56CCCN5CC(F)C6)nc4c3F)c12 (centres undefined) + CC(Nc1ccc2c(c1)OCCn1cc(N3C(=O)OCC3C(F)F)nc1-2)C(N)=O
inactive: viability, T/C (second compound 0.00316 µM, first compound 0.0316 µM) 116% | viability, T/C (second compound 0.00316 µM, first compound 0.1 µM) 101% | viability, T/C (second compound 0.00316 µM, first compound 0.316 µM) 104% | viability, T/C (second compound 0.00316 µM, first compound 1 µM) 96.2% | viability, T/C (second compound 0.00316 µM, first compound 3.16 µM) 101% | viability, T/C (second compound 0.00316 µM, first compound 10 µM) 92.7% | viability, T/C (second compound 0.01 µM, first compound 0.0316 µM) 113% | viability, T/C (second compound 0.01 µM, first compound 0.1 µM) 92.1% | viability, T/C (second compound 0.01 µM, first compound 0.316 µM) 109% | viability, T/C (second compound 0.01 µM, first compound 1 µM) 95.2% | viability, T/C (second compound 0.01 µM, first compound 3.16 µM) 91.9% | viability, T/C (second compound 0.01 µM, first compound 10 µM) 91.3% | viability, T/C [1] 104% | viability, T/C [2] 100% | viability, T/C [3] 103% | viability, T/C [4] 91.2% | viability, T/C [5] 98.5% | viability, T/C [6] 87.7% | viability, T/C [7] 101% | viability, T/C [8] 106% | viability, T/C [9] 97% | viability, T/C [10] 99.9% | viability, T/C [11] 97.5% | viability, T/C [12] 91.5% | viability, T/C [13] 88.6% | viability, T/C [14] 93% | viability, T/C [15] 99.4% | viability, T/C [16] 89.1% | viability, T/C [17] 99.1% | viability, T/C [18] 77.8% | viability, T/C [19] 86% | viability, T/C [20] 92.3% | viability, T/C [21] 92.6% | viability, T/C [22] 86.4% | viability, T/C [23] 88.6% | viability, T/C [24] 72.8%
> 10 µM: IC50 (second compound 0.00316 µM) | IC50 (second compound 0.01 µM) | IC50 (second compound 0.0316 µM) | IC50 (second compound 0.1 µM) | IC50 (second compound 0.316 µM) | IC50 (second compound 1 µM)

CC1(C)CCC(CN2CCN(c3ccc(C(=O)NS(=O)(=O)c4ccc(NCC5CCOCC5)c([N+](=O)[O-])c4)c(Oc4cnc5[nH]ccc5c4)c3)CC2)=C(c2ccc(Cl)cc2)C1 + Cc1nc(NC(=O)N2CCCC2C(N)=O)sc1-c1ccnc(C(C)(C)C(F)(F)F)c1
inactive: viability, T/C [1] 105% | viability, T/C [2] 101% | viability, T/C [3] 106% | viability, T/C [4] 100% | viability, T/C [5] 98.3% | viability, T/C [6] 12.2% | viability, T/C [7] 104% | viability, T/C [8] 96.9% | viability, T/C [9] 104% | viability, T/C [10] 95% | viability, T/C [11] 92.5% | viability, T/C [13] 99.5% | viability, T/C [14] 95.5% | viability, T/C [15] 98.6% | viability, T/C [16] 92.4% | viability, T/C [17] 93.5% | viability, T/C [18] 10.5% | viability, T/C [19] 88.4% | viability, T/C [20] 94.4% | viability, T/C [21] 94.9% | viability, T/C [22] 91% | viability, T/C [23] 88.4% | viability, T/C (second compound 3.16 µM, first compound 0.0316 µM) 80.6% | viability, T/C (second compound 3.16 µM, first compound 0.1 µM) 87.4% | viability, T/C (second compound 3.16 µM, first compound 0.316 µM) 86% | viability, T/C (second compound 3.16 µM, first compound 1 µM) 84.3% | viability, T/C (second compound 3.16 µM, first compound 3.16 µM) 83% | viability, T/C (second compound 10 µM, first compound 0.0316 µM) 70% | viability, T/C (second compound 10 µM, first compound 0.1 µM) 73.9% | viability, T/C (second compound 10 µM, first compound 0.316 µM) 72.9% | viability, T/C (second compound 10 µM, first compound 1 µM) 68.5% | viability, T/C (second compound 10 µM, first compound 3.16 µM) 77%
5.4 µM: IC50 (second compound 1 µM)
5.71 µM: IC50 (second compound 0.1 µM)
6.03 µM: IC50 (second compound 0.0316 µM)
active: viability, T/C [12] 9.67% | viability, T/C [24] 5.86% | viability, T/C (second compound 3.16 µM, first compound 10 µM) 5.29% | viability, T/C (second compound 10 µM, first compound 10 µM) 5.54%
4.66 µM: IC50 (second compound 10 µM)
5.78 µM: IC50 (second compound 0.316 µM)
5.16 µM: IC50 (second compound 3.16 µM)

From PubChem BioAssay AID1963961 (Molecular Pharmacology Branch, DTP, NCI, 2024)
